# Tested on: neuronal cells
# Assay: Toxicogenomic DNA chip test: gene expression level (RES) in cells exposed to the compound compared to unexposed cells
# Assay type: cell-based
# Details: Neuron
# From the text: One wishes to carry out the evaluation of the toxicity of a collection of (15) pesticides using a toxicogenomic analysis of the impact of these pesticides on neuronal cells, according to 4 modes of exposure of the cells to the compounds:
# DNA chips built specifically to test the expression level of the 51 genes in cells under study, each chip being configured only for one gene in our case, each chip allowing to carry out for each gene a redundant number of measurements (16) in order to stabilize the levels of expression by analysing the results on average. The spots on the chips are numbered sp1 to sp16.
# An automated device D5 allowing, on signal of execution of the C2 test, to take a E1 sample of the cell culture C (non exposed) and a E2 sample of the cell culture C exposed to the compound by the device described previously under the conditions specified with the configuration, then to use the D1 device to select a DNA chip corresponding to the gene specified at the time of the configuration, and to put the samples E1 and E2 thus obtained in the presence of the aforementioned DNA chip according to the methods described in the D1 device,
# The result of a test, RES, transmitted by the Resource Unit to the PC, is a raw numerical value which indicates the expression level of the gene indicated in the configuration, for the cell exposed to the compound under the conditions of concentration and exposure duration specified in the configuration, compared to the expression level of the same gene in an unexposed cell of identical nature.
# The following results are based on 3 evaluations, each using a different strategy, the target cells being neuronal cells, the mode of exposure being Expo11.
# The results presented in table 2 show the values obtained in (052) for the evaluation of Paraquat according to the 4 modes Expo11, Expo12, Expo21, Expo22 carried out. The missing data are not relevant (ranging between 0.5 and 2 strictly).
compound,measurement,setting,value
C[n+]1ccc(-c2cc[n+](C)cc2)cc1 [Paraquat],A2M gene expression level RES (exposed/unexposed cells),"C1 (IC50), 24 h (Expo11)",0.43
same,AITCH gene expression level RES (exposed/unexposed cells),"C1 (IC50), 24 h (Expo11)",0.13
same,ALB gene expression level RES (exposed/unexposed cells),"C1 (IC50), 24 h (Expo11)",0.57
same,APAF1 gene expression level RES (exposed/unexposed cells),"C1 (IC50), 24 h (Expo11)",0.47
same,AR gene expression level RES (exposed/unexposed cells),"C1 (IC50), 24 h (Expo11)",0.39
same,ATF6 gene expression level RES (exposed/unexposed cells),"C1 (IC50), 24 h (Expo11)",0.48
same,ATM gene expression level RES (exposed/unexposed cells),"C1 (IC50), 24 h (Expo11)",0.42
same,BAX gene expression level RES (exposed/unexposed cells),"C1 (IC50), 24 h (Expo11)",0.40
same,BCL2 gene expression level RES (exposed/unexposed cells),"C1 (IC50), 24 h (Expo11)",0.44
same,BZRP gene expression level RES (exposed/unexposed cells),"C1 (IC50), 24 h (Expo11)",0.53
same,C12ORF8 gene expression level RES (exposed/unexposed cells),"C1 (IC50), 24 h (Expo11)",0.57
same,CALR gene expression level RES (exposed/unexposed cells),"C1 (IC50), 24 h (Expo11)",0.52
same,CDC25C gene expression level RES (exposed/unexposed cells),"C1 (IC50), 24 h (Expo11)",0.62
same,CDK4 gene expression level RES (exposed/unexposed cells),"C1 (IC50), 24 h (Expo11)",0.59
same,CDKN1A gene expression level RES (exposed/unexposed cells),"C1 (IC50), 24 h (Expo11)",0.46
same,CREB1 gene expression level RES (exposed/unexposed cells),"C1 (IC50), 24 h (Expo11)",0.64
same,CTSB gene expression level RES (exposed/unexposed cells),"C1 (IC50), 24 h (Expo11)",0.51
same,CTSD gene expression level RES (exposed/unexposed cells),"C1 (IC50), 24 h (Expo11)",0.39
same,EGF gene expression level RES (exposed/unexposed cells),"C1 (IC50), 24 h (Expo11)",0.47
same,EPHX1 gene expression level RES (exposed/unexposed cells),"C1 (IC50), 24 h (Expo11)",0.45
same,FOS gene expression level RES (exposed/unexposed cells),"C1 (IC50), 24 h (Expo11)",0.43
same,GADD45A gene expression level RES (exposed/unexposed cells),"C1 (IC50), 24 h (Expo11)",0.54
same,GPX1 gene expression level RES (exposed/unexposed cells),"C1 (IC50), 24 h (Expo11)",0.49
same,GSS gene expression level RES (exposed/unexposed cells),"C1 (IC50), 24 h (Expo11)",0.54
same,GSTM3 gene expression level RES (exposed/unexposed cells),"C1 (IC50), 24 h (Expo11)",0.71
same,HOXD1 gene expression level RES (exposed/unexposed cells),"C1 (IC50), 24 h (Expo11)",0.44
same,HSPA5 gene expression level RES (exposed/unexposed cells),"C1 (IC50), 24 h (Expo11)",0.55
same,HSPA9B gene expression level RES (exposed/unexposed cells),"C1 (IC50), 24 h (Expo11)",0.58
same,JUN gene expression level RES (exposed/unexposed cells),"C1 (IC50), 24 h (Expo11)",0.61
same,MDM2 gene expression level RES (exposed/unexposed cells),"C1 (IC50), 24 h (Expo11)",0.37
same,NFKB1 gene expression level RES (exposed/unexposed cells),"C1 (IC50), 24 h (Expo11)",0.54
same,NOS2A gene expression level RES (exposed/unexposed cells),"C1 (IC50), 24 h (Expo11)",0.54
same,PARA gene expression level RES (exposed/unexposed cells),"C1 (IC50), 24 h (Expo11)",0.38
same,PGR gene expression level RES (exposed/unexposed cells),"C1 (IC50), 24 h (Expo11)",0.42
same,RAD50 gene expression level RES (exposed/unexposed cells),"C1 (IC50), 24 h (Expo11)",0.63
same,RAD51 gene expression level RES (exposed/unexposed cells),"C1 (IC50), 24 h (Expo11)",0.49
same,SOD1 gene expression level RES (exposed/unexposed cells),"C1 (IC50), 24 h (Expo11)",0.76
same,TF1 gene expression level RES (exposed/unexposed cells),"C1 (IC50), 24 h (Expo11)",0.68
same,THBS1 gene expression level RES (exposed/unexposed cells),"C1 (IC50), 24 h (Expo11)",0.39
same,TP53 gene expression level RES (exposed/unexposed cells),"C1 (IC50), 24 h (Expo11)",0.54
same,TUBA1 gene expression level RES (exposed/unexposed cells),"C1 (IC50), 24 h (Expo11)",0.38
same,XBP1 gene expression level RES (exposed/unexposed cells),"C1 (IC50), 24 h (Expo11)",0.50
same,A2M gene expression level RES (exposed/unexposed cells),"C1 (IC50), 48 h (Expo12)",0.03
same,AITCH gene expression level RES (exposed/unexposed cells),"C1 (IC50), 48 h (Expo12)",0.03
same,ALB gene expression level RES (exposed/unexposed cells),"C1 (IC50), 48 h (Expo12)",0.01
same,APAF1 gene expression level RES (exposed/unexposed cells),"C1 (IC50), 48 h (Expo12)",0.05
same,AR gene expression level RES (exposed/unexposed cells),"C1 (IC50), 48 h (Expo12)",0.04
same,ATF6 gene expression level RES (exposed/unexposed cells),"C1 (IC50), 48 h (Expo12)",0.05
same,ATM gene expression level RES (exposed/unexposed cells),"C1 (IC50), 48 h (Expo12)",0.04
same,BAX gene expression level RES (exposed/unexposed cells),"C1 (IC50), 48 h (Expo12)",0.05
same,BCL2 gene expression level RES (exposed/unexposed cells),"C1 (IC50), 48 h (Expo12)",0.04
same,BZRP gene expression level RES (exposed/unexposed cells),"C1 (IC50), 48 h (Expo12)",0.04
same,C12ORF8 gene expression level RES (exposed/unexposed cells),"C1 (IC50), 48 h (Expo12)",0.05
same,CALR gene expression level RES (exposed/unexposed cells),"C1 (IC50), 48 h (Expo12)",0.04
same,CDC25C gene expression level RES (exposed/unexposed cells),"C1 (IC50), 48 h (Expo12)",0.04
same,CDK4 gene expression level RES (exposed/unexposed cells),"C1 (IC50), 48 h (Expo12)",0.06
same,CDKN1A gene expression level RES (exposed/unexposed cells),"C1 (IC50), 48 h (Expo12)",0.02
same,CREB1 gene expression level RES (exposed/unexposed cells),"C1 (IC50), 48 h (Expo12)",0.03
same,CTSB gene expression level RES (exposed/unexposed cells),"C1 (IC50), 48 h (Expo12)",0.05
same,CTSD gene expression level RES (exposed/unexposed cells),"C1 (IC50), 48 h (Expo12)",0.03
same,EGF gene expression level RES (exposed/unexposed cells),"C1 (IC50), 48 h (Expo12)",0.04
same,EPHX1 gene expression level RES (exposed/unexposed cells),"C1 (IC50), 48 h (Expo12)",0.07
same,FOS gene expression level RES (exposed/unexposed cells),"C1 (IC50), 48 h (Expo12)",0.04
same,GADD45A gene expression level RES (exposed/unexposed cells),"C1 (IC50), 48 h (Expo12)",0.04
same,GPX1 gene expression level RES (exposed/unexposed cells),"C1 (IC50), 48 h (Expo12)",0.02
same,GSS gene expression level RES (exposed/unexposed cells),"C1 (IC50), 48 h (Expo12)",0.04
same,GSTM3 gene expression level RES (exposed/unexposed cells),"C1 (IC50), 48 h (Expo12)",0.06
same,HOXD1 gene expression level RES (exposed/unexposed cells),"C1 (IC50), 48 h (Expo12)",0.03
same,HSPA5 gene expression level RES (exposed/unexposed cells),"C1 (IC50), 48 h (Expo12)",0.06
same,HSPA9B gene expression level RES (exposed/unexposed cells),"C1 (IC50), 48 h (Expo12)",0.05
same,JUN gene expression level RES (exposed/unexposed cells),"C1 (IC50), 48 h (Expo12)",0.05
same,MDM2 gene expression level RES (exposed/unexposed cells),"C1 (IC50), 48 h (Expo12)",0.05
same,NFKB1 gene expression level RES (exposed/unexposed cells),"C1 (IC50), 48 h (Expo12)",0.04
same,NOS2A gene expression level RES (exposed/unexposed cells),"C1 (IC50), 48 h (Expo12)",0.04
same,PARA gene expression level RES (exposed/unexposed cells),"C1 (IC50), 48 h (Expo12)",0.04
same,PGR gene expression level RES (exposed/unexposed cells),"C1 (IC50), 48 h (Expo12)",0.04
same,RAD50 gene expression level RES (exposed/unexposed cells),"C1 (IC50), 48 h (Expo12)",0.06
same,RAD51 gene expression level RES (exposed/unexposed cells),"C1 (IC50), 48 h (Expo12)",0.05
same,SOD1 gene expression level RES (exposed/unexposed cells),"C1 (IC50), 48 h (Expo12)",0.05
same,TF1 gene expression level RES (exposed/unexposed cells),"C1 (IC50), 48 h (Expo12)",0.05
same,THBS1 gene expression level RES (exposed/unexposed cells),"C1 (IC50), 48 h (Expo12)",0.05
same,TP53 gene expression level RES (exposed/unexposed cells),"C1 (IC50), 48 h (Expo12)",0.05
same,TUBA1 gene expression level RES (exposed/unexposed cells),"C1 (IC50), 48 h (Expo12)",0.04
same,XBP1 gene expression level RES (exposed/unexposed cells),"C1 (IC50), 48 h (Expo12)",0.05
same,A2M gene expression level RES (exposed/unexposed cells),"C2 (IC50/10), 24 h (Expo21)",0.14
same,AITCH gene expression level RES (exposed/unexposed cells),"C2 (IC50/10), 24 h (Expo21)",0.08

# — US20080228408A1, “Method for Determining the State of an Ensemble of Cells and System for the Implementation of the Method” (priority 2005, published 2008)
